The values below come from patent US11739087B2, “Inhibiting (α-v)(β-6) integrin” (Morphic Therapeutic, Inc., priority 2018, dated 2023).

The nature of data set [1]: MDCK permeability assay, wild type MDCK cells with no inhibitor (A→B). The class given is in vitro ADME, Canine. The following applies: dog, no Pgp inhibitor, apical to basolateral. As for the experimental part:
(§1) Compounds were tested for permeability in an MDCK permeability assay. This assay measures the ability of compounds to cross a layer of Madin-Darby Canine Kidney (MDCK) cells from the apical to basolateral side (A→B). This measurement is predictive of the ability of compounds to be absorbed in the gut following oral dosing, an essential characteristic of an orally administered small molecule integrin inhibitor drug.
(§2) The assay is run in two formats. One uses wild type MDCK cells with no inhibitor. This method works well in determining the passive permeability of compounds with low efflux by P-glyocprotein (Pgp), and was used to assess permeability of a Reference Compound having the chemical formula shown below.
(§3) Cell Culture and Maintenance: • Cell stock cultures (MDCK or MDCK MDR1) are maintained in MEM+10% FBS+1% NEAA, grown in 75 cm^2 tissue culture treated flasks and split (passed) 2 times weekly to maintain desired confluence. • For maintenance passage: trypsinized cells are routinely distributed into new flasks at a standard passage ratio of 1:20.
(§4) Seeding assay plates: MDCK assay plates are seeded with MDCK or MDCK MCR1 cells 3-4 days prior to running the assay. 24-well plates are seeded at a cell density of 0.88×10^5/well in a 400 μL apical chamber volume (2.2×10^5/mL) with a […] volume of growth medium to the 24-well basal chamber. […]

Data set [2] concerns Madin-Darby Canine Kidney (MDCK) cells. The data set is described as above. The data set is classed as in vitro ADME. The following applies: no Pgp inhibitor, apical to basolateral. On the procedure: as §1, §2, §3, §4

Some results are limits rather than exact numbers.

In general, Papp A→B refers to the apparent permeability from the apical to the basolateral side of a cell layer. Read a low Papp A→B as poor permeation.

Consider `O=C(O)CN1CCC(C(=O)N2CCC(c3ccc4c(n3)NCCC4)CC2)CC1` [Reference Compound], for which the Papp A→B at 90 min, 5 μM in data set [1] is below 0.23 ×10⁻⁶ cm/s. Further, in data set [2], the “MDCK (A −> B)” value is “less than 0.23”.
